Assay results reported in the NIST ThermoML archive (doi:10.1016/j.tca.2014.06.026).
Numbers after ± are expanded uncertainties.

Experiments:
[1] = xn = mol fraction of the nth substance listed; conditions: 101 kPa, Liquid, x1 = 1; for speed of sound: Frequency=2 MHz, Sing-around technique in a fixed-path interferometer; for viscosity: Oscillating disk viscometry; for mass density: Vibrating tube method
[2] = 101 kPa, Liquid; for speed of sound: Frequency=2 MHz, Sing-around technique in a fixed-path interferometer; for viscosity: Oscillating disk viscometry; for mass density: Vibrating tube method

| Compound | speed of sound ([1]; 303.15 K) | viscosity ([1]; 303.15 K) | mass density ([1]; 303.15 K) | speed of sound ([1]; 308.15 K) | viscosity ([1]; 308.15 K) | mass density ([1]; 308.15 K) | speed of sound ([1]; 313.15 K) | viscosity ([1]; 313.15 K) | speed of sound ([2]; 303.15 K) | viscosity ([2]; 303.15 K) | mass density ([2]; 303.15 K) | speed of sound ([2]; 308.15 K) | viscosity ([2]; 308.15 K) | mass density ([2]; 308.15 K) | speed of sound ([2]; 313.15 K) | viscosity ([2]; 313.15 K) | mass density ([2]; 313.15 K) | speed of sound ([2]; 318.15 K) | viscosity ([2]; 318.15 K) | mass density ([2]; 318.15 K) | other results |
| --- | --- | --- | --- | --- | --- | --- | --- | --- | --- | --- | --- | --- | --- | --- | --- | --- | --- | --- | --- | --- | --- |
| CN1CCCC1=O [N-methylpyrrolidone] + OC1CCCCC1 | 1552.8 ± 1 m/s | 1.511 ± 0.3 mPa·s | 1023.45 ± 0.11 kg/m3 | 1526.4 ± 0.9 m/s | 1.409 ± 0.28 mPa·s | 1019.34 ± 0.11 kg/m3 | 1501 ± 0.9 m/s | 1.332 ± 0.27 mPa·s |  |  |  |  |  |  |  |  |  |  |  |  | mass density ([1]; 313.15 K): 1014.82 ± 0.11 kg/m3; speed of sound ([1]; 318.15 K): 1478 ± 0.9 m/s; viscosity ([1]; 318.15 K): 1.21 ± 0.24 mPa·s; mass density ([1]; 318.15 K): 1010.06 ± 0.11 kg/m3 |
| C1=CCCCC1 [cyclohexene] |  |  |  |  |  |  |  |  | 1252.1 ± 0.8 m/s | 0.581 ± 0.12 mPa·s | 801.81 ± 0.15 kg/m3 | 1224.8 ± 0.8 m/s | 0.549 ± 0.11 mPa·s | 797.25 ± 0.15 kg/m3 | 1196.6 ± 0.8 m/s | 0.516 ± 0.1 mPa·s | 792.61 ± 0.15 kg/m3 | 1169.6 ± 0.8 m/s | 0.488 ± 0.098 mPa·s | 788.02 ± 0.15 kg/m3 |  |
| NC1CCCCC1 [cyclohexylamine] |  |  |  |  |  |  |  |  | 1397.8 ± 0.9 m/s | 1.797 ± 0.36 mPa·s | 857.71 ± 0.14 kg/m3 | 1379.2 ± 0.9 m/s | 1.704 ± 0.34 mPa·s | 853.14 ± 0.14 kg/m3 | 1360.6 ± 0.9 m/s | 1.617 ± 0.32 mPa·s | 848.61 ± 0.14 kg/m3 | 1342 ± 0.9 m/s | 1.506 ± 0.3 mPa·s | 844.07 ± 0.14 kg/m3 |  |
| OC1CCCCC1 [cyclohexanol] |  |  |  |  |  |  |  |  | 1443.2 ± 0.9 m/s | 41.07 ± 8.2 mPa·s | 941.32 ± 0.12 kg/m3 | 1419.6 ± 0.9 m/s | 27.95 ± 5.6 mPa·s | 937.23 ± 0.12 kg/m3 | 1395.2 ± 0.9 m/s | 16.66 ± 3.3 mPa·s | 933.48 ± 0.12 kg/m3 | 1370.8 ± 0.9 m/s | 8.888 ± 1.8 mPa·s | 928.11 ± 0.12 kg/m3 |  |
| CN1CCCC1=O [N-methylpyrrolidone] |  |  |  |  |  |  |  |  | 1552.8 ± 1 m/s | 1.511 ± 0.3 mPa·s | 1023.45 ± 0.11 kg/m3 | 1526.4 ± 0.9 m/s | 1.409 ± 0.28 mPa·s | 1019.34 ± 0.11 kg/m3 | 1501 ± 0.9 m/s | 1.332 ± 0.27 mPa·s | 1014.82 ± 0.11 kg/m3 | 1478 ± 0.9 m/s | 1.21 ± 0.24 mPa·s | 1010.06 ± 0.11 kg/m3 |  |

Now from value to compound, other results behind:

| speed of sound ([1]; 303.15 K) | viscosity ([1]; 303.15 K) | mass density ([1]; 303.15 K) | speed of sound ([1]; 308.15 K) | viscosity ([1]; 308.15 K) | mass density ([1]; 308.15 K) | speed of sound ([1]; 313.15 K) | viscosity ([1]; 313.15 K) | speed of sound ([2]; 303.15 K) | viscosity ([2]; 303.15 K) | mass density ([2]; 303.15 K) | speed of sound ([2]; 308.15 K) | viscosity ([2]; 308.15 K) | mass density ([2]; 308.15 K) | speed of sound ([2]; 313.15 K) | viscosity ([2]; 313.15 K) | mass density ([2]; 313.15 K) | speed of sound ([2]; 318.15 K) | viscosity ([2]; 318.15 K) | mass density ([2]; 318.15 K) | Compound | other results |
| --- | --- | --- | --- | --- | --- | --- | --- | --- | --- | --- | --- | --- | --- | --- | --- | --- | --- | --- | --- | --- | --- |
| 1552.8 ± 1 m/s | 1.511 ± 0.3 mPa·s | 1023.45 ± 0.11 kg/m3 | 1526.4 ± 0.9 m/s | 1.409 ± 0.28 mPa·s | 1019.34 ± 0.11 kg/m3 | 1501 ± 0.9 m/s | 1.332 ± 0.27 mPa·s |  |  |  |  |  |  |  |  |  |  |  |  | CN1CCCC1=O [N-methylpyrrolidone] + NC1CCCCC1 | mass density ([1]; 313.15 K): 1014.82 ± 0.11 kg/m3; speed of sound ([1]; 318.15 K): 1478 ± 0.9 m/s; viscosity ([1]; 318.15 K): 1.21 ± 0.24 mPa·s; mass density ([1]; 318.15 K): 1010.06 ± 0.11 kg/m3 |
| 1552.8 ± 1 m/s | 1.511 ± 0.3 mPa·s | 1023.45 ± 0.11 kg/m3 | 1526.4 ± 0.9 m/s | 1.409 ± 0.28 mPa·s | 1019.34 ± 0.11 kg/m3 | 1501 ± 0.9 m/s | 1.332 ± 0.27 mPa·s |  |  |  |  |  |  |  |  |  |  |  |  | CN1CCCC1=O [N-methylpyrrolidone] + C1=CCCCC1 | mass density ([1]; 313.15 K): 1014.82 ± 0.11 kg/m3; speed of sound ([1]; 318.15 K): 1478 ± 0.9 m/s; viscosity ([1]; 318.15 K): 1.21 ± 0.24 mPa·s; mass density ([1]; 318.15 K): 1010.06 ± 0.11 kg/m3 |
